Measured values taken from PMC6576746, “Rational discovery of dual-indication multi-target PDE/Kinase inhibitor for precision anti-cancer therapy using structural systems pharmacology” (PLoS Computational Biology, 2019).

Experiments:
Experiment in all cases: biochemical
Set-up in all cases: DiscoverX KinomeScan competition binding assay across human kinases; per cent of control at 10 and 100 uM
WEE2 = WEE2 (Homo sapiens, UniProt P0C1S8); settings: competition binding, % of control; read-out: Percent Control (100 uM Levosimendan)
Description: (§1) To validate our computational predictions, we employed a competition binding assay to detect the binding of levosimendan to 425 human kinases as well as its dose-response curve to RIOK1. The proprietary KinomeScan assay was performed by DiscoverX (Fremont, California, USA). The tests were performed at 10 μM and 100 μM concentrations of levosimendan, respectively. Assay results were reported as %control, calculated as follows: %control=(TestCompoundSignal−PositiveControlSignal)/(NegativeControlSignal−PositiveControlSignal)×100 KinomeScan assay across 452 human kinases verified our computational prediction (S1 Table). RIOK1 is one of the strongest inhibited kinases by levosimendan. The percentage control of RIOK1 is 15.0 and 0.0 under the treatment of 10 μM and 100 μM of levosimendan, respectively. […] The percentage controls of five kinases: FLT3, MAP2K5, PIP5K1A, GAK, and KIT are less than 30.0 under the treatment of both 10 μM and 100 μM of levosimendan. Both FLT3 and KIT are tyrosine protein kinases. Their inhibitors have recently been approved for the treatment of Acute Myeloid Leukemia and other types of cancers, but a combination therapy is needed to overcome rapidly emerged drug resistance, thus improve patients’ drug responses. Other kinases inhibited by levosimendan belong to serine/threonine protein kinase family (RIOK1, RIOK3, GAK, and MAP2K5) and lipid kinase family (PIP5K1A). […] As a result, levosimendan may modulate different cancer pathways from those by the tyrosine protein kinase inhibitors, and it could be a novel lead compound for a new anti-cancer therapy to overcome drug resistance of existing drugs or to target different types of cancers through polypharmacology or drug combination.

EGFR(L861Q) = EGFR(L861Q) (Homo sapiens, UniProt P00533, L861Q); settings: competition binding, % of control; read-out: Percent Control (100 uM Levosimendan)
Description: as §1

AAK1 = AAK1 (Homo sapiens, UniProt Q2M2I8); settings: competition binding, % of control
Description: as §1

GAK = GAK (Homo sapiens, UniProt O14976); settings: competition binding, % of control
Description: as §1

ADCK4 = target: T1, ADCK4 (Homo sapiens, UniProt Q96D53); settings: competition binding, % of control; read-out: Percent Control (100 uM Levosimendan)
T1 construct: gene COQ8B
Description: as §1

WNK2 = WNK2 (Homo sapiens, UniProt Q9Y3S1); settings: competition binding, % of control; read-out: Percent Control (100 uM Levosimendan)
Description: as §1

PDPK1 = PDPK1 (Homo sapiens, UniProt O15530); settings: competition binding, % of control; read-out: Percent Control (100 uM Levosimendan)
Description: as §1

BRAF = BRAF (Homo sapiens, UniProt P15056); settings: competition binding, % of control; read-out: Percent Control (100 uM Levosimendan)
Description: as §1

CTK = target: T2, CTK (Homo sapiens, UniProt P42679); settings: competition binding, % of control; read-out: Percent Control (100 uM Levosimendan)
T2 construct: gene MATK
Description: as §1

HPK1 = target: T3, HPK1 (Homo sapiens, UniProt Q92918); settings: competition binding, % of control; read-out: Percent Control (100 uM Levosimendan)
T3 construct: gene MAP4K1
Description: as §1

PIK3CA(H1047L) = PIK3CA(H1047L) (Homo sapiens, UniProt P42336, H1047L); settings: competition binding, % of control; read-out: Percent Control (100 uM Levosimendan)
Description: as §1

EPHB1 = EPHB1 (Homo sapiens, UniProt P54762); settings: competition binding, % of control; read-out: Percent Control (100 uM Levosimendan)
Description: as §1

RET(M918T) = RET(M918T) (Homo sapiens, UniProt P07949, M918T); settings: competition binding, % of control; read-out: Percent Control (100 uM Levosimendan)
Description: as §1

BRSK1 = BRSK1 (Homo sapiens, UniProt Q8TDC3); settings: competition binding, % of control; read-out: Percent Control (100 uM Levosimendan)
Description: as §1

PIP5K2C = target: T4, PIP5K2C (Homo sapiens, UniProt Q8TBX8); settings: competition binding, % of control
T4 construct: gene PIP4K2C
Description: as §1

DCAMKL2 = target: T5, DCAMKL2 (Homo sapiens, UniProt Q8N568); settings: competition binding, % of control; read-out: Percent Control (100 uM Levosimendan)
T5 construct: gene DCLK2
Description: as §1

PIK3C2G = PIK3C2G (Homo sapiens, UniProt O75747); settings: competition binding, % of control; read-out: Percent Control (100 uM Levosimendan)
Description: as §1

[1] = target: T6, ABL1(Q252H)-nonphosphorylated (Homo sapiens, UniProt P00519, Q252H); settings: competition binding, % of control; read-out: Percent Control (100 uM Levosimendan)
T6 construct: nonphosphorylated
Description: as §1

PLK1 = PLK1 (Homo sapiens, UniProt P53350); settings: competition binding, % of control; read-out: Percent Control (100 uM Levosimendan)
Description: as §1

[2] = read-out: Percent Control (10 uM Levosimendan)
[3] = read-out: Percent Control (100 uM Levosimendan)

T4 sequence (Q8TBX8 whole entry): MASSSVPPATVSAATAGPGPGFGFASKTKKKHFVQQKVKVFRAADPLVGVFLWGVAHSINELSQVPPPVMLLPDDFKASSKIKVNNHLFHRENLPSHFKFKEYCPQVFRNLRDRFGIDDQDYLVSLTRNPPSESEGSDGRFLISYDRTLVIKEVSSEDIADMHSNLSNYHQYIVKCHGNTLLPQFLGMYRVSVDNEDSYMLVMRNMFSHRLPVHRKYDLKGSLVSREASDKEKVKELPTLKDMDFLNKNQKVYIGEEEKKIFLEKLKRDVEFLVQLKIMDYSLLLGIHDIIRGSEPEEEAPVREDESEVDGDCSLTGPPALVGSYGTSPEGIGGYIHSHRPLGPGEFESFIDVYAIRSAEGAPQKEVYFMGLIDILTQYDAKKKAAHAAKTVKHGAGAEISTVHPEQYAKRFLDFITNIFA
Sequence of GAK (O14976 whole entry): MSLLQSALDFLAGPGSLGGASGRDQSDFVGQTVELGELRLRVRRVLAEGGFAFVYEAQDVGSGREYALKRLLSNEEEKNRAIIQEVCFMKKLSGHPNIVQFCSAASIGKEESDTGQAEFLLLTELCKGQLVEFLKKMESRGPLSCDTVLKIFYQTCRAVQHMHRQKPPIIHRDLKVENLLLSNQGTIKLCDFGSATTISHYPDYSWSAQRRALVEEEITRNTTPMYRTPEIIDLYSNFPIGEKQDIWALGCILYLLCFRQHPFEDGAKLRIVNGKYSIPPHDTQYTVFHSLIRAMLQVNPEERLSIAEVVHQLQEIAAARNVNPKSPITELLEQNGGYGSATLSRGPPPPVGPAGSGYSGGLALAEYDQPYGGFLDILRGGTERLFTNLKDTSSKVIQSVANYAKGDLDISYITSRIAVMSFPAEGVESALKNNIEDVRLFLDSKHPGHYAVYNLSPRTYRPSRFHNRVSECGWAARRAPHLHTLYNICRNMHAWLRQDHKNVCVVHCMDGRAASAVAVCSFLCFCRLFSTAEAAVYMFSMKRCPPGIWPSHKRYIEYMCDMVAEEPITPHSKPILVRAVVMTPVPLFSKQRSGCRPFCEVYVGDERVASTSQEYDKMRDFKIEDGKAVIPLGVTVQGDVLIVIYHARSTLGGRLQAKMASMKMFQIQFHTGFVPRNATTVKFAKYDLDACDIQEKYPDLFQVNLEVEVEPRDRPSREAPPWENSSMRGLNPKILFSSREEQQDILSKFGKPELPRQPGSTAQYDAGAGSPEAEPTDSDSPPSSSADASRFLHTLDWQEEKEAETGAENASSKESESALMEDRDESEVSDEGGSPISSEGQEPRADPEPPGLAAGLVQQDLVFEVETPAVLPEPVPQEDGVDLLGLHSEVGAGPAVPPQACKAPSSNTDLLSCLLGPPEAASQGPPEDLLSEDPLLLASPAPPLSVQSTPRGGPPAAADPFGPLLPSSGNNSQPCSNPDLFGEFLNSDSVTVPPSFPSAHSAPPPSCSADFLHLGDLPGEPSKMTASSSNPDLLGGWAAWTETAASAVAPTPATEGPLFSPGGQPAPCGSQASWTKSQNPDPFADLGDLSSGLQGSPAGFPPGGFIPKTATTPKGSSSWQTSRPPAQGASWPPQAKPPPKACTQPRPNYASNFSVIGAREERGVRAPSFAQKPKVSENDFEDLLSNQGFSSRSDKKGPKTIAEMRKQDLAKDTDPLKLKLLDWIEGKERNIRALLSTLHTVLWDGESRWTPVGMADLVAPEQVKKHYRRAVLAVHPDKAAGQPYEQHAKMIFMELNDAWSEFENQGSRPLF
Sequence of AAK1 (Q2M2I8 whole entry): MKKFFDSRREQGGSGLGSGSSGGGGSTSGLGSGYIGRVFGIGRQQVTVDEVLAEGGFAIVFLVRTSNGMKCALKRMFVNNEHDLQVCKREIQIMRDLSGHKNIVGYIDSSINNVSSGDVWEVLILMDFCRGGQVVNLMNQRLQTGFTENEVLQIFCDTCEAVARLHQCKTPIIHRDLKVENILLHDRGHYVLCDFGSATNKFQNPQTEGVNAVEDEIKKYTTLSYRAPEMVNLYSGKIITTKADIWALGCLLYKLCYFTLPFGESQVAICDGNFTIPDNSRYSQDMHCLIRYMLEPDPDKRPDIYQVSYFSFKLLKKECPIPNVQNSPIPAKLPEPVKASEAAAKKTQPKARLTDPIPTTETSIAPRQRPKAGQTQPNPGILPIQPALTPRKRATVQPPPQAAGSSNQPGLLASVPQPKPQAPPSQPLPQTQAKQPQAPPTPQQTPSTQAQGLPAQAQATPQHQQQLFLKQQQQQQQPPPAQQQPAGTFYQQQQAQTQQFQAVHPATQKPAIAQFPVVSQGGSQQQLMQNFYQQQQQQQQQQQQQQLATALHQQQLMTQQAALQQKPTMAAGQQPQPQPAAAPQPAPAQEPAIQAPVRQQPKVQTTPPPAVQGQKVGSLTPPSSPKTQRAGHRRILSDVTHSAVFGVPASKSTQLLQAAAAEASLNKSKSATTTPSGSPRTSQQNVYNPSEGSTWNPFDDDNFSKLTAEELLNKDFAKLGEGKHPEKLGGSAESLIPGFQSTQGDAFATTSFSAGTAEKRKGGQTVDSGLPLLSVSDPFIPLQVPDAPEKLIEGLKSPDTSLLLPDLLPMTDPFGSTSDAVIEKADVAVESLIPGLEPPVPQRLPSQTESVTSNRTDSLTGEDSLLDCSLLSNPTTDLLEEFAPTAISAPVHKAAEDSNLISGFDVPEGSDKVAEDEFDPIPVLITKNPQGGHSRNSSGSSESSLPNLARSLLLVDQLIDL
T1 sequence (Q96D53 whole entry): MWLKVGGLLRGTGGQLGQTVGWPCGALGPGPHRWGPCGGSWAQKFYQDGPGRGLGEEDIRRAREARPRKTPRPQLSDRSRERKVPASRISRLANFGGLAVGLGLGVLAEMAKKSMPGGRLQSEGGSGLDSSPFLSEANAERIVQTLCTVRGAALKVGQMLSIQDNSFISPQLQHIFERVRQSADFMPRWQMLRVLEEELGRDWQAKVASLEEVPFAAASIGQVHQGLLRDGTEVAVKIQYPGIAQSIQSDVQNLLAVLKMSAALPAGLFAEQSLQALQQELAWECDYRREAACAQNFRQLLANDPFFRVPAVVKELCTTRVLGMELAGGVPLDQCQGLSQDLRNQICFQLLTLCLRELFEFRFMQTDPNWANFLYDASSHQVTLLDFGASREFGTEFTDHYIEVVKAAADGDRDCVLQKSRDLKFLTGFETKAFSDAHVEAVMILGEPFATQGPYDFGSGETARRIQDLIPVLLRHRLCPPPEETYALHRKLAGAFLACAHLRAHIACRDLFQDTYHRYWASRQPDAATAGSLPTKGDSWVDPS
Sequence of BRSK1 (Q8TDC3 whole entry): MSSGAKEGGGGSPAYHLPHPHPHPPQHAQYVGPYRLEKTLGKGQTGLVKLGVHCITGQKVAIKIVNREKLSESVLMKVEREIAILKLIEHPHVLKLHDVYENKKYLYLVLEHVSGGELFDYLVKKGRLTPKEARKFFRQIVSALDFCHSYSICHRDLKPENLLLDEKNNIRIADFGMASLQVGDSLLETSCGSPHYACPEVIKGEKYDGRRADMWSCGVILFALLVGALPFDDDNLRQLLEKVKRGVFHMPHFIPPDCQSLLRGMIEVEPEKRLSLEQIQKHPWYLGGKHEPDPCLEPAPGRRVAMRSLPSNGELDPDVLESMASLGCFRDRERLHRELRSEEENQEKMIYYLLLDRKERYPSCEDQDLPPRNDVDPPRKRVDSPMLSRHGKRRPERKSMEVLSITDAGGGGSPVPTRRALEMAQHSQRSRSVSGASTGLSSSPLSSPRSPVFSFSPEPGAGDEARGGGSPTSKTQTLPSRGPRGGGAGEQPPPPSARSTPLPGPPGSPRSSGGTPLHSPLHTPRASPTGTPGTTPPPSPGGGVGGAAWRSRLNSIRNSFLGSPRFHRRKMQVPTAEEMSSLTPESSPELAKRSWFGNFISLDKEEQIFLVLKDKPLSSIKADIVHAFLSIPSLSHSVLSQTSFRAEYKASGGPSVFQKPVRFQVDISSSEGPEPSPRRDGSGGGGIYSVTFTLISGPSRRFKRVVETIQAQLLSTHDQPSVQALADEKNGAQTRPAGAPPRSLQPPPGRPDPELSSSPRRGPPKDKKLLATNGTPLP
Sequence of PIK3CA(H1047L) (P42336 whole entry H1047L): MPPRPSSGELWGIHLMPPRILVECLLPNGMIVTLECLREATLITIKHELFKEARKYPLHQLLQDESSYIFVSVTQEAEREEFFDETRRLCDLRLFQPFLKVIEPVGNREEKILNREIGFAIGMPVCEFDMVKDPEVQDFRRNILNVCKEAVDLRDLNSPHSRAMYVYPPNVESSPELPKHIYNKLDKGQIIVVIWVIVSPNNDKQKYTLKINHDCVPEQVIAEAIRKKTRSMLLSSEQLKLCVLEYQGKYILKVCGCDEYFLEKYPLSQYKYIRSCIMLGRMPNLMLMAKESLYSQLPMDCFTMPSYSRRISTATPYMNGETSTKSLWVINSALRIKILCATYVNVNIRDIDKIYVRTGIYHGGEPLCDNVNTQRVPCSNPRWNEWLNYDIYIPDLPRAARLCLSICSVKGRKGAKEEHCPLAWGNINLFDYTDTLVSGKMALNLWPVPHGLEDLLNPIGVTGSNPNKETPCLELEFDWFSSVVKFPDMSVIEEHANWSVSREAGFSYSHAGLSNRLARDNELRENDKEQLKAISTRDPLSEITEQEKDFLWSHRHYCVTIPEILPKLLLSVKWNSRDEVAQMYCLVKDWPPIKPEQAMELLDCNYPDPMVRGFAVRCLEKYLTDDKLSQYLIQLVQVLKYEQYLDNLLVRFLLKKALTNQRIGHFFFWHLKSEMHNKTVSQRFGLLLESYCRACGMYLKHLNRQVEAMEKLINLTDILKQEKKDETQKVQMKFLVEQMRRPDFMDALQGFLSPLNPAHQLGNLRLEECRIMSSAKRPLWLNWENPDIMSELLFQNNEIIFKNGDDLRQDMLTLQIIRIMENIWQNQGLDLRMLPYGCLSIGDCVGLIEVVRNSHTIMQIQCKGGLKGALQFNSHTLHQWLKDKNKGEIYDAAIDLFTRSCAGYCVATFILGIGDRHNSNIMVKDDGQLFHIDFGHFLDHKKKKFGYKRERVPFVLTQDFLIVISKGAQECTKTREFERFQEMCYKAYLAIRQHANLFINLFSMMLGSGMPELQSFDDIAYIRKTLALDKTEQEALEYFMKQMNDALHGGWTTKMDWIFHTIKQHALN

C[C@@H]1CC(=O)NN=C1c1ccc(NN=C(C#N)C#N)cc1 [levosimendan]
remaining binding at 100 µM (WEE2): 76% | remaining binding at 100 µM (EGFR(L861Q)): 71% | remaining binding at 10 µM (AAK1; [2]): 31% | remaining binding at 100 µM (AAK1; [3]): 24% | remaining binding at 10 µM (GAK; [2]): 24% | remaining binding at 100 µM (GAK; [3]): 16% | remaining binding at 100 µM (ADCK4): 100% | remaining binding at 100 µM (WNK2): 98% | remaining binding at 100 µM (PDPK1): 100% | remaining binding at 100 µM (BRAF): 81% | remaining binding at 100 µM (CTK): 72% | remaining binding at 100 µM (HPK1): 95% | remaining binding at 100 µM (PIK3CA(H1047L)): 100% | remaining binding at 100 µM (EPHB1): 96% | remaining binding at 100 µM (RET(M918T)): 90% | remaining binding at 100 µM (BRSK1): 100% | remaining binding at 10 µM (PIP5K2C; [2]): 52% | remaining binding at 100 µM (PIP5K2C; [3]): 5.9% | remaining binding at 100 µM (DCAMKL2): 100% | remaining binding at 100 µM (PIK3C2G): 100% | remaining binding at 100 µM [1]: 61% | remaining binding at 100 µM (PLK1): 100%
